The source of these data is PubChem BioAssay (NCI).

Holding throughout (experiment): NCI-60 cell line screen, 48 h
The subject of assay [1] is A549 NSCLC.
Assay [2] concerns HCC-2998 colon.
For assay [3], the system named is HCT-15 colon.
For assay [4], the system named is MOLT-4 leukemia.
Assay [5] deals with NCI-H226 lung.
Assay [6] relates to NCI-H460 lung.
For assay [7], the system named is RPMI-8226 leukemia.
Assay [8] relates to RXF 393 renal.
The test system of assay [9] is SF-268 CNS.
In assay [10] the test system is SK-OV-3 ovarian.

Structures are written as SMILES.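 Grown in 96-well plates, cells were treated for 48 hours with each compound at five concentrations. Insufficient inhibition: endpoint recorded as highest concentration tested. TGI: concentration producing complete growth inhibition.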

Turning to `COc1c(Cl)c(Cl)c(OC)c2c1C(=O)C=CC2=O`, the TGI is above 100 µM in assay [1]; above 100 µM in [2]; above 100 µM in [3]; 46.7 µM in assay [4]; above 100 µM in [5]; above 100 µM in assay [6]. Also, the TGI in assay [7] is 73.1 µM; in [8] it was 30.9 µM; in assay [9], 30.6 µM; in assay [10], above 100 µM.

Take `OCCNc1nc2c(N3CCCC3)nc(N3CCNCC3)nc2nc1NCc1ccccc1`: the TGI in assay [1] turned out to be 31.4 µM; in assay [2], 29.1 µM; in assay [3], 32.2 µM; in assay [4] it was 33.3 µM; in assay [5] it was 35.2 µM; in assay [6], 29.9 µM. The TGI in assay [7] came out at 38.4 µM; in [8], 24.7 µM; in assay [9] it was 34.1 µM; in assay [10], 31.1 µM.

`CSc1nc(=O)c(C#N)c(-c2ccccc2)n1C1OC(COC(C)=O)C(OC(C)=O)C(OC(C)=O)C1OC(C)=O` (stereo not given): the TGI in assay [1], in [2], in [3], in assay [4], in assay [5] and in assay [6] was above 100 µM throughout. The TGI in assay [7], in assay [8], in [9] and in assay [10] was above 100 µM throughout.

`Clc1ccc(-c2nn3c(C45CC6CC(CC(C6)C4)C5)nnc3s2)cc1`: the TGI in assay [1], in assay [2], in assay [3], in assay [4], in [5] and in assay [6] was above 100 µM throughout. Moreover, the TGI in assay [7], in assay [8], in [9] and in assay [10] was above 100 µM in each case.

As to `c1cn[nH]c1`, the TGI in assay [1], in assay [2], in assay [3], in assay [4], in [5] and in assay [6] was above 10 µM throughout. In addition, the TGI in [7], in assay [8], in [9] and in assay [10] was above 10 µM each time.

Regarding `O=C1OC(C(O)C(O)C(O)CO)C(O)C1O` (stereo not given), the TGI in assay [1], in assay [2], in assay [3], in assay [4], in [5] and in assay [6] was above 100 µM in each case. Moreover, the TGI in [7], in assay [8], in [9] and in [10] was above 100 µM each time.

For the molecule `C/C(=C/c1c(C)[nH]c(=O)[nH]c1=O)C(=O)O`, the TGI in assay [1] is above 1380 µM; in assay [2], above 1380 µM; in assay [3], above 1380 µM; in assay [4] it was above 1380 µM; in assay [5] it was above 1370 µM; in assay [6], above 1380 µM. For the same molecule, the TGI in assay [7] is above 1380 µM; in assay [8], above 1380 µM; in assay [9], above 1380 µM; in [10], above 1370 µM.

As for `Cc1ccc(CC(=O)Nc2ccc(NC(=O)CNC(=O)/C=C/c3ccc(-c4ccccc4)cc3)cc2C(=O)c2ccccc2)cc1`, the TGI in assay [1] came to 5.37 µM; in assay [2], 4.98 µM; in assay [3], 13.2 µM; in assay [4], 15.3 µM; in assay [5] it was 8.39 µM; in assay [6], 11.1 µM. Moreover, the TGI in assay [7] was 29.2 µM; in assay [8], 6.6 µM; in assay [9] it was 7.51 µM; in [10], 27.4 µM.

`C=C1[C@H](OCC(C)C)[C@@H](OC(=O)C(C)CC)[C@@H](O)C(C)(C)/C=C/[C@H](C)C(=O)[C@@]2(O)C[C@H](C)[C@H](O)[C@@H]2[C@H]1OC(=O)C(C)CC` (stereo not given in full): the TGI in assay [1] is above 20 µM; in assay [2], above 9.84 µM; in assay [3] it was above 20 µM; in [4], above 10.3 µM; in assay [5], above 20 µM; in assay [6] it was 8.18 µM. Also, the TGI in assay [7] is 12 µM; in assay [8], above 20 µM; in assay [9] it was above 20 µM; in [10] it was above 20 µM.

Turning to `Cc1oc2c(C)c3oc(=O)cc(C)c3cc2c1CN`, the TGI is above 100 µM in [1]; 64.7 µM in assay [2]; above 100 µM in [3]; above 100 µM in assay [4]; 91.2 µM in [5]; above 100 µM in assay [6]. Also, the TGI in assay [7] was above 100 µM; in assay [8] it was above 100 µM; in assay [9] it was above 100 µM; in assay [10] it was 79.2 µM.

Consider `Cn1c(=O)c2[nH]c(-n3nc(-c4ccccc4)cc3N)nc2n(C)c1=O`, for which the TGI was above 100 µM in [1]; above 100 µM in [2]; above 100 µM in assay [3]; above 100 µM in assay [4]; 33.7 µM in [5]; above 100 µM in [6]. In addition, the TGI was above 100 µM in assay [7], above 100 µM in [8], above 100 µM in assay [9] and 20.4 µM in [10].
